Reference: patent US20110166221A1, “USE OF DRONEDARONE FOR THE PREPARATION OF A MEDICAMENT FOR USE IN THE PREVENTION OF CARDIOVERSION” (SANOFI-AVENTIS, priority 2008, published 2011)
Counter-ions that a name gives are not always drawn.

System: patients with a history of atrial fibrillation or atrial flutter
Assay: prospective, multinational, double-blind, randomized, multi-center, placebo-controlled, parallel group trial for the prevention of cardioversion
Assay type: in vivo, human
Protocol: Efficacy of dronedarone and its pharmaceutically acceptable salts versus placebo for the prevention of cardioversion was provided via dronedarone hydrochloride during a prospective, multinational, double-blind, randomized, multi-center, placebo-controlled, parallel group trial.
Patients must have a history of atrial fibrillation or atrial flutter and/or may be in normal sinus rhythm or in atrial fibrillation or flutter at the time of recruitment.
Recruitment of patients was conducted taking into account the following inclusion criteria:
• 1) One of the following risk factors had to be present: • age equal to or greater than 70 years, • hypertension (taking antihypertensives of at least two different classes), • diabetes, • history of cerebral stroke (transient ischemic event or completed cerebral stroke) or of systemic embolism, • left atrial diameter greater than or equal to 50 mm measured by echocardiography, • left ventricular ejection fraction less than 40%, measured by two-dimensional echography; • or • age equal to or above 70, or even above 75, possibly combined with at least one of the risk factors below: • hypertension (taking antihypertensives of at least two different classes), • diabetes, • history of cerebral stroke (transient ischemic event or completed cerebral stroke) or of systemic embolism, • left atrial diameter greater than or equal to 50 mm measured by echocardiography, • left ventricular ejection fraction less than 40%, measured by two-dimensional echography; • 2) availability of one electrocardiogram within the last six months, showing that the patients was or is in atrial fibrillation/flutter, • 3) availability of one electrocardiogram within the last six months, showing that the patients was or is in sinus rhythm.
Study drug treatment units (placebo or dronedarone hydrochloride corresponding to 400 mg of base) were such that each patient took one tablet in the morning during or shortly after breakfast and one tablet in the evening during or shortly after dinner.
The treatment duration depended on the time of recruitment of each patient in the trial and could be comprised from 12 months to 30 months.
Results were calculated using non-parametric Kaplan-Meier estimate.
Cox's proportional hazard model was used to estimate the hazard ratio also called relative risk.
Relative risk (RR) is the ratio between the risk of having a cardioversion for patients treated with dronedarone and the risk of having a cardioversion for patients treated with placebo.
Percentage of decrease of an event is calculated as follow: […]

CCCCc1oc2ccc(NS(C)(=O)=O)cc2c1C(=O)c1ccc(OCCCN(CCCC)CCCC)cc1 [dronedarone hydrochloride, 2-n-butyl-3-[4-(3-di-n-butylaminopropoxy)benzoyl]-5-methylsulfonamido-benzofuran]
events (cardioversion) registered (2301 of 4628 patients treated, 400 mg of base twice a day with meals, 12 to 30 months, placebo group 481 events): 339
Calculated relative risk (hazard ratio) of having a cardioversion versus placebo (Cox's proportional hazard model, 400 mg of base twice a day, 12 to 30 months, p<0.001): 0.68
time course of effect, Kaplan Meier cumulative incidence from randomization to first cardioversion (FIG. 1) (on-study period 12-30 months): occurred early and increased over time
decrease of electrical cardioversion (x=1-RR versus placebo, p<0.001): 32%
